Experimental data from PubChem BioAssay AID330 (DTP/NCI, 2004).
“And” between values parts separate entries of the source, which are not always exact repeats. Equal entries are not always repeated. Inconclusive results and toxic doses are left out. How the source made its calls: active means survival T/C of 150% or more; inactive means T/C below 125% in these data.

Test system: P388 leukemia ip, CD2F1 mice, survival T/C
Test: NCI In Vivo Anticancer Drug Screen. Data for tumor model P388 Leukemia (intraperitoneal) in CD2F1 (CDF1) mice
Conditions: endpoint: median survival time, higher = longer survival
In short: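 Mice carrying the transplanted tumor received test compound or vehicle. Survival was recorded in each group, and the value is the treated-group measurement divided by that of the vehicle-treated control group.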

[1] = dose: 50.0 mg/kg/injection, schedule: Q01DX005 (ip), vehicle: Klucel (hydroxypropylcellulose) (HPC)
[2] = dose: 100.0 mg/kg/injection, schedule: Q01DX005 (ip), vehicle: Klucel (hydroxypropylcellulose) (HPC)
[3] = dose: 200.0 mg/kg/injection, schedule: Q01DX005 (ip), vehicle: Klucel (hydroxypropylcellulose) (HPC)
[4] = dose: 50.0 mg/kg/injection, schedule: Q01DX009 (ip), vehicle: saline
[5] = dose: 100.0 mg/kg/injection, schedule: Q01DX009 (ip), vehicle: saline
[6] = dose: 50.0 mg/kg/injection, schedule: Q01DX009 (ip), vehicle: saline with Tween-80
[7] = dose: 200.0 mg/kg/injection, schedule: Q01DX009 (ip), vehicle: saline with Tween-80
[8] = dose: 50.0 mg/kg/injection, schedule: Q01DX005 (ip), vehicle: saline with Tween-80
[9] = dose: 12.5 mg/kg/injection, schedule: Q01DX009 (ip), vehicle: Klucel (hydroxypropylcellulose) (HPC)

Measured: T/C

Cc1cc(NS(=O)(=O)c2ccc(NC(=O)NCCCl)cc2)no1
inactive: dose: 30.0 mg/kg/injection, schedule: Q01DX005 (ip), vehicle: Klucel (hydroxypropylcellulose) (HPC) 99 % of control | dose: 60.0 mg/kg/injection, schedule: Q01DX005 (ip), vehicle: Klucel (hydroxypropylcellulose) (HPC) 98 % of control | dose: 120.0 mg/kg/injection, schedule: Q01DX005 (ip), vehicle: Klucel (hydroxypropylcellulose) (HPC) 100 % of control | dose: 240.0 mg/kg/injection, schedule: Q01DX005 (ip), vehicle: Klucel (hydroxypropylcellulose) (HPC) 100 % of control

Nc1cccnc1C1OCCO1
inactive: dose: 50.0 mg/kg/injection, schedule: Q01DX009 (ip), vehicle: other 100 % of control | dose: 100.0 mg/kg/injection, schedule: Q01DX009 (ip), vehicle: other 103 % of control

Cc1cc(=O)n2c([nH]c3ccccc32)c1N=Nc1ccccc1
inactive: [1] 93 % of control | [2] 92 % of control | [3] 100 % of control

CC(C)N(CCCOC(=O)c1ccc(N)cc1)C(C)C
inactive: dose: 25.0 mg/kg/injection, schedule: Q01DX009 (ip), vehicle: saline 100 % of control | dose: 25.0 mg/kg/injection, schedule: Q04DX003 (ip), vehicle: saline 100 % of control | [4] 100 % of control | dose: 50.0 mg/kg/injection, schedule: Q04DX003 (ip), vehicle: saline 91 % of control | [5] 100 % of control | dose: 100.0 mg/kg/injection, schedule: Q04DX003 (ip), vehicle: saline 100 % of control

O=S(=O)(O)c1ccc(-c2nnc(-c3ccccn3)nc2-c2ccc(S(=O)(=O)O)o2)o1
inactive: dose: 60.0 mg/kg/injection, schedule: Q01DX005 (ip), vehicle: saline 102 % of control | dose: 120.0 mg/kg/injection, schedule: Q01DX005 (ip), vehicle: saline 97 % of control | dose: 240.0 mg/kg/injection, schedule: Q01DX005 (ip), vehicle: saline 102 % of control

CCOC(=O)C(=CN(C)c1ccccc1)C(=O)OCC
inactive: [6] 108 % of control | dose: 100.0 mg/kg/injection, schedule: Q01DX009 (ip), vehicle: saline with Tween-80 108 % of control | [7] 101 % of control

CC1C2CC3OC(=O)C1C3C2 (configuration not stated)
inactive: dose: 12.5 mg/kg/injection, schedule: Q01DX005 (ip), vehicle: saline with Tween-80 102 % of control | dose: 25.0 mg/kg/injection, schedule: Q01DX005 (ip), vehicle: saline with Tween-80 102 % of control | [8] 99 % of control and 106 % of control

CCOC(=O)c1ccc(NC(=O)CSc2nc3ccccc3o2)cc1
inactive: [4] 114 % of control | [5] 93 % of control

O=C(/C=C/c1ccccc1)CC1=NC2NN(c3ccccc3)C(=O)C2=C1CC(=O)/C=C/c1ccccc1 (configuration not stated)
inactive: dose: 60.0 mg/kg/injection, schedule: Q01DX005 (ip), vehicle: suspension in saline 95 % of control | dose: 120.0 mg/kg/injection, schedule: Q01DX005 (ip), vehicle: suspension in saline 99 % of control | dose: 240.0 mg/kg/injection, schedule: Q01DX005 (ip), vehicle: suspension in saline 107 % of control

Cc1cc2[nH]c(Cl)c(/C=N/Nc3ccccc3[N+](=O)[O-])c2cc1O
inactive: dose: 50.0 mg/kg/injection, schedule: Q01DX001 (ip), vehicle: Klucel (hydroxypropylcellulose) (HPC) 96 % of control | dose: 100.0 mg/kg/injection, schedule: Q01DX001 (ip), vehicle: Klucel (hydroxypropylcellulose) (HPC) 99 % of control | dose: 200.0 mg/kg/injection, schedule: Q01DX001 (ip), vehicle: Klucel (hydroxypropylcellulose) (HPC) 90 % of control and 96 % of control

CC(=O)OC(C(=O)CBr)C(OC(C)=O)C(OC(C)=O)C(=O)CBr (configuration not stated)
inactive: [9] 114 % of control | dose: 25.0 mg/kg/injection, schedule: Q01DX009 (ip), vehicle: Klucel (hydroxypropylcellulose) (HPC) 96 % of control

CCCCCCCCCCCCCCCC(=O)OOC(C)(C)C
inactive: dose: 60.0 mg/kg/injection, schedule: Q01DX005 (ip), vehicle: saline with Tween-80 93 % of control | dose: 120.0 mg/kg/injection, schedule: Q01DX005 (ip), vehicle: saline with Tween-80 94 % of control | dose: 240.0 mg/kg/injection, schedule: Q01DX005 (ip), vehicle: saline with Tween-80 93 % of control

CCSC1=C(SCC)C1SCC
inactive: dose: 12.5 mg/kg/injection, schedule: Q04DX003 (ip), vehicle: Klucel (hydroxypropylcellulose) (HPC) 107 % of control | dose: 25.0 mg/kg/injection, schedule: Q04DX003 (ip), vehicle: Klucel (hydroxypropylcellulose) (HPC) 107 % of control | dose: 50.0 mg/kg/injection, schedule: Q04DX003 (ip), vehicle: Klucel (hydroxypropylcellulose) (HPC) 121 % of control | dose: 100.0 mg/kg/injection, schedule: Q04DX003 (ip), vehicle: Klucel (hydroxypropylcellulose) (HPC) 113 % of control

O=c1cc(O)nc2nc(-c3ccccc3)c(-c3ccccc3)nn12
inactive: [1] 101 % of control | [2] 93 % of control | [3] 93 % of control

O=C(NC1CCCCC1)OCc1c(COC(=O)NC2CCCCC2)c(-c2ccc(Cl)c(Cl)c2)n2c1CCC2
active: dose: 25.0 mg/kg/injection, schedule: Q01DX009 (ip), vehicle: saline with Tween-80 150 % of control and 168 % of control | dose: 50.0 mg/kg/injection, schedule: Q01DX009 (ip), vehicle: Klucel (hydroxypropylcellulose) (HPC) 161 % of control | [6] 166 % of control and 170 % of control and 174 % of control | dose: 100.0 mg/kg/injection, schedule: Q01DX009 (ip), vehicle: Klucel (hydroxypropylcellulose) (HPC) 189 % of control
inactive: dose: 6.25 mg/kg/injection, schedule: Q01DX009 (ip), vehicle: Klucel (hydroxypropylcellulose) (HPC) 94 % of control | [9] 119 % of control | [7] 91 % of control

C=C1C(=O)OC2/C=C(CO)/C=C\C3OC3(C)CC(OC(=O)/C(=C/C)CO)C12 (configuration not stated)
inactive: dose: 12.5 mg/kg/injection, schedule: Q01DX005 (ip), vehicle: Klucel (hydroxypropylcellulose) (HPC) 106 % of control and 97 % of control | dose: 25.0 mg/kg/injection, schedule: Q01DX005 (ip), vehicle: Klucel (hydroxypropylcellulose) (HPC) 99 % of control and 103 % of control and 116 % of control | [1] 109 % of control and 111 % of control

O=C1NC(=O)C2C3C=CC(C12)C1C2C(=O)NC(=O)C2C31 (configuration not stated)
inactive: dose: 12.5 mg/kg/injection, schedule: Q01DX009 (ip), vehicle: distilled water + Tween-80 116 % of control | dose: 100.0 mg/kg/injection, schedule: Q01DX001 (ip), vehicle: saline with Tween-80 96 % of control | dose: 200.0 mg/kg/injection, schedule: Q01DX001 (ip), vehicle: saline with Tween-80 109 % of control | dose: 400.0 mg/kg/injection, schedule: Q01DX001 (ip), vehicle: saline with Tween-80 119 % of control
active: dose: 25.0 mg/kg/injection, schedule: Q01DX009 (ip), vehicle: distilled water + Tween-80 153 % of control | dose: 30.0 mg/kg/injection, schedule: Q01DX009 (ip), vehicle: water 163 % of control | dose: 50.0 mg/kg/injection, schedule: Q01DX009 (ip), vehicle: distilled water + Tween-80 193 % of control

CCCCCCCCCC[N+](C)([O-])CCCCCC[N+](C)([O-])CCCCCCCCCC (configuration not stated)
inactive: dose: 50.0 mg/kg/injection, schedule: Q04DX003 (ip), vehicle: saline with Tween-80 102 % of control | dose: 100.0 mg/kg/injection, schedule: Q04DX003 (ip), vehicle: saline with Tween-80 99 % of control

Cc1ccc(/C=C/C(=O)/C=C/c2ccc(C)o2)o1
inactive: dose: 25.0 mg/kg/injection, schedule: Q01DX005 (ip), vehicle: DMSO 107 % of control | dose: 50.0 mg/kg/injection, schedule: Q01DX005 (ip), vehicle: DMSO 104 % of control | [8] 99 % of control | dose: 100.0 mg/kg/injection, schedule: Q01DX005 (ip), vehicle: DMSO 104 % of control | dose: 100.0 mg/kg/injection, schedule: Q01DX005 (ip), vehicle: saline with Tween-80 96 % of control | dose: 200.0 mg/kg/injection, schedule: Q01DX005 (ip), vehicle: DMSO 97 % of control | dose: 200.0 mg/kg/injection, schedule: Q01DX005 (ip), vehicle: saline with Tween-80 100 % of control | dose: 400.0 mg/kg/injection, schedule: Q01DX005 (ip), vehicle: DMSO 101 % of control

CC1(C)OC2OC(C3CSC(=S=O)S3)C(O)C2O1 (configuration not stated)
inactive: dose: 12.5 mg/kg/injection, schedule: Q01DX005 (ip), vehicle: Klucel + Tween-80 95 % of control | dose: 25.0 mg/kg/injection, schedule: Q01DX005 (ip), vehicle: Klucel + Tween-80 100 % of control | dose: 50.0 mg/kg/injection, schedule: Q01DX005 (ip), vehicle: Klucel + Tween-80 103 % of control

COc1cncn2c(C)nnc12
inactive: dose: 50.0 mg/kg/injection, schedule: Q01DX005 (ip), vehicle: saline 100 % of control | dose: 100.0 mg/kg/injection, schedule: Q01DX005 (ip), vehicle: saline 99 % of control | dose: 200.0 mg/kg/injection, schedule: Q01DX005 (ip), vehicle: saline 94 % of control
